{
  "source": "BindingDB's records for doi:10.1021/jm00024a010",
  "about": "(Boehringer Ingelheim Pharmaceuticals, 1995)",
  "key": {"[1]": {"target": "T1, Gag-Pol polyprotein [600-1027,R876K]/[600-1155] (Human immunodeficiency virus 1, UniProt P03366, R876K)", "T1 construct": "600-1027; 600-1155", "test": "HIV-1 RT Assay"}, "[2]": {"target": "T2, Gag-Pol polyprotein [600-1027,Y780C]/[600-1155,Y780C] (Human immunodeficiency virus 1, UniProt P03366, Y780C)", "T2 construct": "600-1027; 600-1155", "test": "HIV-1 RT Assay"}},
  "data": [
    {"molecule": "CCN1c2ncccc2C(=O)N(C)c2cccnc21", "values": [
      {"measurement": "IC50", "setting": "[1]; pH 7.8, 25 °C", "value": 130, "unit": "nM"}
    ]},
    {"molecule": "CCC=Nc1ccc2c(n1)N(CC)c1ncccc1C(=O)N2C", "values": [
      {"measurement": "IC50", "setting": "[1]", "value": 390, "unit": "nM"},
      {"measurement": "IC50", "setting": "[2]", "value": "> 1000", "unit": "nM"}
    ]},
    {"molecule": "CCN1c2ncccc2C(=O)Nc2c(C)cc(C)nc21", "note": "[2-ethyl-5,7-dimethyl-2,4,9,15-tetraazatricyclo[9.4.0.0^{3,8}]pentadeca-1(11),3,5,7,12,14-hexaen-10-one]", "values": [
      {"measurement": "IC50", "setting": "[2]; pH 7.8, 25 °C", "value": "> 1000", "unit": "nM"}
    ]},
    {"molecule": "CCN1c2ncccc2C(=O)N(C)c2ccc(-c3cccc(O)c3)nc21", "note": "[2-ethyl-5-(3-hydroxyphenyl)-9-methyl-2,4,9,15-tetraazatricyclo[9.4.0.0^{3,8}]pentadeca-1(11),3,5,7,12,14-hexaen-10-one]", "values": [
      {"measurement": "IC50", "setting": "[1]", "value": 100, "unit": "nM"}
    ]},
    {"molecule": "CCN1c2ncccc2C(=O)Nc2c(C)cc(N(C)CCO)nc21", "note": "[2-ethyl-5-[(2-hydroxyethyl)(methyl)amino]-7-methyl-2,4,9,15-tetraazatricyclo[9.4.0.0^{3,8}]pentadeca-1(11),3,5,7,12,14-hexaen-10-one]", "values": [
      {"measurement": "IC50", "setting": "[2]", "value": "> 1000", "unit": "nM"}
    ]},
    {"molecule": "CCN1c2ncccc2C(=O)Nc2c(C)cc(NCCO)nc21", "note": "[2-ethyl-5-[(2-hydroxyethyl)amino]-7-methyl-2,4,9,15-tetraazatricyclo[9.4.0.0^{3,8}]pentadeca-1(11),3,5,7,12,14-hexaen-10-one]", "values": [
      {"measurement": "IC50", "setting": "[2]", "value": "> 1000", "unit": "nM"}
    ]},
    {"molecule": "CCN1c2ncccc2C(=O)Nc2c(C)cc(NCCCO)nc21", "note": "[2-ethyl-5-[(3-hydroxypropyl)amino]-7-methyl-2,4,9,15-tetraazatricyclo[9.4.0.0^{3,8}]pentadeca-1(11),3,5,7,12,14-hexaen-10-one]", "values": [
      {"measurement": "IC50", "setting": "[2]", "value": "> 1000", "unit": "nM"}
    ]},
    {"molecule": "CCN1c2ncccc2C(=O)N(C)c2ccc(=O)[nH]c21", "note": "[2-ethyl-5-hydroxy-9-methyl-2,4,9,15-tetraazatricyclo[9.4.0.0^{3,8}]pentadeca-1(11),3,5,7,12,14-hexaen-10-one]", "values": [
      {"measurement": "IC50", "setting": "[2]", "value": "> 1000", "unit": "nM"}
    ]},
    {"molecule": "CCN1c2ncccc2C(=O)Nc2c(C)cc(SC)nc21", "note": "[2-ethyl-7-methyl-5-(methylsulfanyl)-2,4,9,15-tetraazatricyclo[9.4.0.0^{3,8}]pentadeca-1(11),3,5,7,12,14-hexaen-10-one]", "values": [
      {"measurement": "IC50", "setting": "[2]", "value": "> 1000", "unit": "nM"}
    ]},
    {"molecule": "CCN1c2ncccc2C(=O)Nc2c(C)cc(C(C)C)nc21", "note": "[2-ethyl-7-methyl-5-(propan-2-yl)-2,4,9,15-tetraazatricyclo[9.4.0.0^{3,8}]pentadeca-1(11),3,5,7,12,14-hexaen-10-one]", "values": [
      {"measurement": "IC50", "setting": "[2]; pH 7.8, 25 °C", "value": "> 1000", "unit": "nM"}
    ]},
    {"molecule": "CCN1c2ncccc2C(=O)Nc2c(C)cc(N3CCSCC3)nc21", "note": "[2-ethyl-7-methyl-5-(thiomorpholin-4-yl)-2,4,9,15-tetraazatricyclo[9.4.0.0^{3,8}]pentadeca-1(11),3,5,7,12,14-hexaen-10-one]", "values": [
      {"measurement": "IC50", "setting": "[2]", "value": "> 1000", "unit": "nM"}
    ]},
    {"molecule": "CCN1c2ncccc2C(=O)N(C)c2ccc(-c3ncco3)nc21", "note": "[2-ethyl-9-methyl-5-(1,3-oxazol-2-yl)-2,4,9,15-tetraazatricyclo[9.4.0.0^{3,8}]pentadeca-1(11),3,5,7,12,14-hexaen-10-one]", "values": [
      {"measurement": "IC50", "setting": "[1]", "value": 110, "unit": "nM"},
      {"measurement": "IC50", "setting": "[2]", "value": 560, "unit": "nM"}
    ]},
    {"molecule": "CCN1c2ncccc2C(=O)N(C)c2ccc(-c3cnco3)nc21", "note": "[2-ethyl-9-methyl-5-(1,3-oxazol-5-yl)-2,4,9,15-tetraazatricyclo[9.4.0.0^{3,8}]pentadeca-1(11),3,5,7,12,14-hexaen-10-one]", "values": [
      {"measurement": "IC50", "setting": "[1]", "value": 220, "unit": "nM"},
      {"measurement": "IC50", "setting": "[2]", "value": 820, "unit": "nM"}
    ]},
    {"molecule": "CCN1c2ncccc2C(=O)N(C)c2ccc(-c3cncs3)nc21", "note": "[2-ethyl-9-methyl-5-(1,3-thiazol-5-yl)-2,4,9,15-tetraazatricyclo[9.4.0.0^{3,8}]pentadeca-1(11),3,5,7,12,14-hexaen-10-one]", "values": [
      {"measurement": "IC50", "setting": "[1]", "value": 100, "unit": "nM"},
      {"measurement": "IC50", "setting": "[2]", "value": 240, "unit": "nM"}
    ]},
    {"molecule": "CCN1c2ncccc2C(=O)N(C)c2ccc(N3CCCCC3)nc21", "note": "[2-ethyl-9-methyl-5-(piperidin-1-yl)-2,4,9,15-tetraazatricyclo[9.4.0.0^{3,8}]pentadeca-1(11),3,5,7,12,14-hexaen-10-one]", "values": [
      {"measurement": "IC50", "setting": "[2]", "value": "> 1000", "unit": "nM"}
    ]},
    {"molecule": "CCN1c2ncccc2C(=O)N(C)c2ccc(-c3ccccn3)nc21", "note": "[2-ethyl-9-methyl-5-(pyridin-2-yl)-2,4,9,15-tetraazatricyclo[9.4.0.0^{3,8}]pentadeca-1(11),3,5,7,12,14-hexaen-10-one]", "values": [
      {"measurement": "IC50", "setting": "[1]", "value": 180, "unit": "nM"}
    ]},
    {"molecule": "CCN1c2ncccc2C(=O)N(C)c2ccc(-c3ccsc3)nc21", "note": "[2-ethyl-9-methyl-5-(thiophen-3-yl)-2,4,9,15-tetraazatricyclo[9.4.0.0^{3,8}]pentadeca-1(11),3,5,7,12,14-hexaen-10-one]", "values": [
      {"measurement": "IC50", "setting": "[1]", "value": 100, "unit": "nM"}
    ]},
    {"molecule": "CCN1c2ncccc2C(=O)N(C)c2ccc(-c3nccs3)nc21", "note": "[5,11-dihydro-11-ethyl-5-methyl-2-(2-thiazolyl)-6H-dipyrido[3,2-b:2 ,3-e][1,4]diazepin-6-one]", "values": [
      {"measurement": "IC50", "setting": "[1]", "value": 380, "unit": "nM"},
      {"measurement": "IC50", "setting": "[2]", "value": 1100, "unit": "nM"}
    ]},
    {"molecule": "CCN1c2ncccc2C(=O)N(C)c2ccc(-c3cccc(N)c3)nc21", "note": "[5,11-dihydro-11-ethyl-5-methyl-2-(3-aminophenyl)-6H-dipyrido[3,2-b:2 ,3-e][1,4]diazepin-6-one]", "values": [
      {"measurement": "IC50", "setting": "[1]", "value": 70, "unit": "nM"}
    ]},
    {"molecule": "CCN1c2ncccc2C(=O)N(C)c2ccc(N)nc21", "note": "[5-amino-2-ethyl-9-methyl-2,4,9,15-tetraazatricyclo[9.4.0.0^{3,8}]pentadeca-1(11),3,5,7,12,14-hexaen-10-one]", "values": [
      {"measurement": "IC50", "setting": "[1]", "value": "> 1000", "unit": "nM"},
      {"measurement": "IC50", "setting": "[2]", "value": "> 1000", "unit": "nM"}
    ]},
    {"molecule": "CN1C(=O)c2cccnc2N(C2CC2)c2nc(Cl)ccc21", "note": "[5-chloro-2-cyclopropyl-9-methyl-2,4,9,15-tetraazatricyclo[9.4.0.0^{3,8}]pentadeca-1(11),3,5,7,12,14-hexaen-10-one]", "values": [
      {"measurement": "IC50", "setting": "[1]; pH 7.8, 25 °C", "value": 90, "unit": "nM"}
    ]},
    {"molecule": "CCN1c2ncccc2C(=O)Nc2c(C)cc(C(C)(C)C)nc21", "note": "[5-tert-butyl-2-ethyl-7-methyl-2,4,9,15-tetraazatricyclo[9.4.0.0^{3,8}]pentadeca-1(11),3,5,7,12,14-hexaen-10-one]", "values": [
      {"measurement": "IC50", "setting": "[1]; pH 7.8, 25 °C", "value": "> 1000", "unit": "nM"},
      {"measurement": "IC50", "setting": "[2]; pH 7.8, 25 °C", "value": "> 1000", "unit": "nM"}
    ]}
  ]
}
